Target: T1, AFP1 (Anti-Fungal Protein 1; AFP1-His) (Zea mays, UniProt B4FUR2)
T1 construct: full-length with own signal peptide, secreted; C-terminal His tag; transient expression in Nicotiana benthamiana, NTA-purified from apoplastic fluid; two DUF26 domains
T1 sequence (B4FUR2 26-268): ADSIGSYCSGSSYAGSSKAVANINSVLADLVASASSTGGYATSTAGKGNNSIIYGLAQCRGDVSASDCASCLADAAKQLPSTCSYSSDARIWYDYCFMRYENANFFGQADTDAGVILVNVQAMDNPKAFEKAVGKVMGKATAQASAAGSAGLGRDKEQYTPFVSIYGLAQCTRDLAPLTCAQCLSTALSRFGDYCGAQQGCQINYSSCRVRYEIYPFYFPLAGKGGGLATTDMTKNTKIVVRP
Experiment: pull-down on mannose-agarose beads, anti-His western blot
Type: binding
Details: mannose immobilised on agarose; 10 mM Tris-HCl pH 7.5, 20 mM CaCl2, 1 M NaCl, 0.05% Tween-20, 4 °C, 1 h

OC[C@H]1OC(O)[C@@H](O)[C@@H](O)[C@@H]1O (stereo partly shown) [mannose]
pull-down on mannose-agarose beads, anti-His western blot: strong binding was observed for wild type AFP1-His

— paper PMC5923269, “The Ustilago maydis repetitive effector Rsp3 blocks the antifungal activity of mannose-binding maize proteins” (Nature Communications, 2018)
